Reference: patent publication US20250296971A1, “GASTRIC INHIBITORY PEPTIDE RECEPTOR LIGANDS” (priority 2021, published 2025)
*1 amine or outer side, *2 acyl side, *3 side chain or, on linkers, in order; H or OH if unused. Where a SMILES comes first, the peptide text is derived from it. Bridges are numbered along the chain shown (N, C = ends). [ ]: non-standard residue; d: D form. The star is where a group is joined. X5 = NC(=O)[C@H](CCCCNC(=O)CN1CCN(CC(=O)O)CCN(CC(=O)O)CCN(CC(=O)O)CC1)NC(=O)CCC(=O)NCCCOCCOCCOCCCN*; X3 = O=C(O)CN1CCN(CC(=O)O)CCN(CC(=O)NCCCOCCOCCOCCCN*)CCN(CC(=O)O)CC1; DOTA = O=C(O)CN1CCN(CC(=O)O)CCN(CC(=O)*)CCN(CC(=O)O)CC1; Trp(5-Cl) = N[C@@H](Cc1c[nH]c2ccc(Cl)cc12)C(=O)O; Pyridine(2,6-diCH2) = c1cc(C[*:1])nc(C[*:2])c1; APAc = 4-amino-1-carboxymethylpiperidine; mXylylene = c1cc(C[*:1])cc(C[*:2])c1; Glutaryl = O=C(CCCC(=O)[*:2])[*:1]; AGLU = 1-amino-1-deoxy-D-glucitol; Hyp = O=C(O)[C@@H]1C[C@@H](O)CN1; dGlu(AGLU) = not defined here; Suc = O=C(CCC(=O)[*:2])[*:1]; Api = NC1(C(=O)O)CCNCC1

B1: 111In-labeled AGLU-Glutar-Asp-Trp-5Clw-Hyp-Glu-leu-[Cys(2Lut)-Apc(DOTA)-Leu-Ile-Cys]-APAc-glu(AGLU)-NH2 (111In-GIP-002) (peptide)
peptide: {AGLU-Glutaryl}-DW[Trp(5-Cl)][Hyp]E[dL]C[Api](DOTA)LIC-{APAc-dGlu(AGLU)-NH2}
modifications: linker 7-11 via Pyridine(2,6-diCH2); reading uncertain; also: DOTA complexed with 111In

Key:
[1] = Plasma stability assay, mouse plasma; format: in vitro ADME; details: 37° C., % intact compound remaining after 4 h or 24 h
Experimental: (§1) In order to determine the stability of selected compounds of the invention in human and mouse plasma, a plasma stability assay was carried out. Such plasma stability assay measures degradation of compounds of the present invention in blood plasma. This is an important characteristic of a compound as compounds, with the exception of pro-drugs, which rapidly degrade in plasma, generally show poor in vivo efficacy. […] The stability is sufficient for the diagnostic, therapeutic and theragnostic use of these compounds according to the present invention.
(§2) The plasma stability samples were prepared by spiking 50 μL plasma aliquots (all K2EDTA) with 1 μL of a 0.5 mM compound stock solution in DMS0. After vortexing the samples were incubated in a Thermomixer at 37° C. for 0, 4 and 24 hours. After incubation the samples were stored on ice until further treatment. All samples were prepared in duplicates.
(§3) A suitable internal standard was added to each sample (1 μL of a 0.5 mM stock solution in DMSO). Protein precipitation was performed by addition of 250 μL of acetonitrile containing 1% trifluoroacetic acid. After incubation at room temperature for 30 min the precipitate was separated by centrifugation and 150 μL of the supernatant was diluted with 150 μL of 1% aqueous formic acid.
(§4) Additionally, recovery was determined by spiking a pure plasma sample that only contained the internal standard after treatment with a certain amount of the compound.
(§5) Carry-over was evaluated by analysis of a blank sample (20% acetonitrile) after the highest calibration sample.

[2] = molecular target: Recombinant soluble human NEP (Homo sapiens, UniProt P08473); assay: Proteolytic stability assay against NEP; details: NEP 100 ng/mL, compound 10 μM, 37° C., % intact compound remaining
[3] = molecular target: T1, GIPR (CHO-K1-hGIPR cells) (Homo sapiens, UniProt P48546); assay: FACS binding assay; details: competition with 20 nM GIP-057, 4° C., 1 hour, read-out: pIC50 Category (converted)
T1 construct: host or cells: CHO-K1
T1 sequence (P48546 22-466): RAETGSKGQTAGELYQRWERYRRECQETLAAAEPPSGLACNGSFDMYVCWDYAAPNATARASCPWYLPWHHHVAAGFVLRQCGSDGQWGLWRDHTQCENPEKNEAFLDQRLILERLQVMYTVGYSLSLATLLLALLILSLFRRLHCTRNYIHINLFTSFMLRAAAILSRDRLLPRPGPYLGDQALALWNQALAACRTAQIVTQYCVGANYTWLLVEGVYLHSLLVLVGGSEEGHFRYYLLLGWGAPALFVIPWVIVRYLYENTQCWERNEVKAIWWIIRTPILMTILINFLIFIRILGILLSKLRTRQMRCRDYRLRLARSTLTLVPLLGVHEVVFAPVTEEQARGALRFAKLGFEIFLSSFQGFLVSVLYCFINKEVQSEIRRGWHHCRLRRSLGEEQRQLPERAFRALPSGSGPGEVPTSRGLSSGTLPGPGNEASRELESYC
Procedure, shortened: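 Steps: detach CHO-K1-hGIPR cells (Accutase); wash in PBS/1% FCS; adjust to 500.000 cells per mL; wash ice-cold; incubate APC-streptavidin 1 μg/mL, 30 min on ice; wash twice; acquire on flow cytometer; fit MFI-concentration data with a four-parameter logistic model.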

[4] = Plasma stability assay, human plasma; format: in vitro ADME; details: 37° C., % intact compound remaining after 4 h or 24 h
Experimental: as §1, §2, §3, §4, §5

[5] = molecular target: T2, human GIPR (HEK-GIPR cells) (Homo sapiens, UniProt P48546); assay: cAMP assay; format: cell-based; details: 37° C., 30 min, cAMP-Glo
T2 construct: host or cells: HEK293
T2 sequence (P48546 22-466): T1 sequence (P48546 22-466)
Experimental: In order to determine the inhibitory or stimulatory activity of compounds according to the present invention of GIPR-expressing cells, a cAMP activity assay was established.
HEK-GIPR cells were generated by InSCREENeX GmbH (Germany) using the targeting vector pTAR to insert the minimal CMV promoter upstream of the human GIPR cDNA by recombinase-mediated cassette exchange into the pre-tagged HEK293 cell line.
HEK-GIPR cells were cultured in RPMI-1640 medium (Sigma-Aldrich, #R0883) including 10% fetal calf serum (FCS), 8 mM L-glutamine, 100 U/mL penicillin, 100 μg/mL streptomycin and 1 mg/mL Geneticin. Cells were detached with Accutase (Biolegend, #BLD-423201) and diluted in culture medium to a final concentration of 100,000 cells per mL. 100 μL of the cell suspension were transferred to white poly-L-lysine-coated 96-well plates with optical bottom (Nunc, #165306) and incubated overnight in a humidified atmosphere containing 5% CO2 at 37° C.
For cAMP detection, the cAMP-Glo™ Assay (Promega, #V1501) was employed. […] After 10 min of incubation, luminescence was read using a SpectraMax M5 Plate Reader (Molecular Devices).
Relative luminescence values (RLU) were plotted against peptide concentration and four parameter logistic (4PL) curve fitting and calculations of EC50/pEC50 and IC50/pIC50, respectively, were performed using ActivityBase software.

[6] = molecular target: human gastric inhibitory polypeptide receptor (human GIPR) (human) (UniProt P48546); assay: radioligand binding assay, 111In-labeled compound on CHO cells expressing GIPR, 6 h 37 °C; pKD category A = pKD > 9.5

Sequence of Recombinant soluble human NEP (P08473 52-750 limits assumed): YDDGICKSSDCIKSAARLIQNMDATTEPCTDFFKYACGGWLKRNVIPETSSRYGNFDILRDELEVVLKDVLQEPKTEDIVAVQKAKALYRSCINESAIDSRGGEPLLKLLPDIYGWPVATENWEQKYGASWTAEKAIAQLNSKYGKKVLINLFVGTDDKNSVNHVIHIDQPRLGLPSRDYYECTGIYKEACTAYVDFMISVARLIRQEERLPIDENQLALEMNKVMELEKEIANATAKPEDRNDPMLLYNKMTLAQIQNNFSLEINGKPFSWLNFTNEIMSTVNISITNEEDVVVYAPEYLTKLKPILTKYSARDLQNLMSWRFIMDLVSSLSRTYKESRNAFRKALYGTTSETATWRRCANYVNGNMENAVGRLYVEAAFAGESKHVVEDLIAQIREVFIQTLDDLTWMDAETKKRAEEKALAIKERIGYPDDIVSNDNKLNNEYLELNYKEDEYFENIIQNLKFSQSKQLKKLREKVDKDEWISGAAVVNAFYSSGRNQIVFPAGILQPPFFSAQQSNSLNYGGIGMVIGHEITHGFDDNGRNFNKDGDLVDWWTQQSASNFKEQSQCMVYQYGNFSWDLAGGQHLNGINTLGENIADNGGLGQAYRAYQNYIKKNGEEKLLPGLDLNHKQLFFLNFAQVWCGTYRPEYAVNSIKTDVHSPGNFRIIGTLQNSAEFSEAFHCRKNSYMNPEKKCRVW

| Molecule | Mouse plasma stability category [1] | NEP stability category [2] | IC50 [3] [nM] | Human plasma stability category [4] | Mean pEC50 ± SD [5] | pKD [6] [pkd] |
| --- | --- | --- | --- | --- | --- | --- |
| CC[C@H](C)[C@@H]1NC(=O)[C@H](CC(C)C)NC(=O)[C@H](C)NC(=O)[C@@H](NC(=O)[C@H](CC(C)C)NC(=O)[C@H](CCC(=O)O)NC(=O)[C@@H]2CCCN2C(=O)[C@H](Cc2c[nH]c3ccccc23)NC(=O)[C@H](Cc2c[nH]c3ccccc23)NC(=O)[C@H](CC(=O)O)NC(=O)[C@H](Cc2ccc(O)cc2)NC(=O)CCC(=O)NCCCOCCOCCOCCCNC(=O)CN2CCN(CC(=O)O)CCN(CC(=O)O)CCN(CC(=O)O)CC2)CSCc2cccc(c2)CSC[C@@H](C(N)=O)NC1=O [GIP-126, DOTA-Ttds-Tyr-Asp-Trp-Trp-Pro-Glu-Leu-[Cys(3MeBn)-Ala-Leu-Ile-Cys]-NH2] ({X3-Suc}-YDWWPELCALIC-NH2; linker 8-12 via mXylylene) | B (>80% intact after 4 hours) | A (>80% intact after 24 hours) | 10 to 79.4 | – | – | – |
| CC[C@H](C)[C@@H]1NC(=O)[C@H](CC(C)C)NC(=O)[C@H](C)NC(=O)[C@@H](NC(=O)[C@H](CC(C)C)NC(=O)[C@H](CCC(=O)O)NC(=O)[C@@H]2CCCN2C(=O)[C@H](Cc2c[nH]c3ccccc23)NC(=O)[C@H](Cc2c[nH]c3ccccc23)NC(=O)[C@H](CC(=O)O)NC(=O)[C@H](Cc2ccc(O)cc2)NC(C)=O)CSCc2cccc(c2)CSC[C@@H](C(=O)NCCCOCCOCCOCCCNC(=O)CCC(=O)N[C@@H](CCCCNC(=O)CN2CCN(CC(=O)O)CCN(CC(=O)O)CCN(CC(=O)O)CC2)C(N)=O)NC1=O [GIP-127, Ac-Tyr-Asp-Trp-Trp-Pro-Glu-Leu-[Cys(3MeBn)-Ala-Leu-Ile-Cys]-Ttds-Lys(DOTA)-NH2] (Ac-YDWWPELCALIC-X5; linker 8-12 via mXylylene) | B (>80% intact after 4 hours) | A (>80% intact after 24 hours) | 10 to 79.4 | – | – | – |
| CC[C@H](C)[C@@H]1NC(=O)[C@H](CC(C)C)NC(=O)[C@H](C)NC(=O)[C@@H](NC(=O)[C@H](CC(C)C)NC(=O)[C@H](CCC(=O)O)NC(=O)[C@@H]2CCCN2C(=O)[C@H](Cc2c[nH]c3ccccc23)NC(=O)[C@H](Cc2c[nH]c3ccccc23)NC(=O)[C@H](CC(=O)O)NC(C)=O)CSCc2cccc(c2)CSC[C@@H](C(N)=O)NC1=O [GIP-244, Ac-Asp-Trp-Trp-Pro-Glu-Leu-[Cys(3MeBn)-Ala-Leu-Ile-Cys]-NH2] (Ac-DWWPELCALIC-NH2; linker 7-11 via mXylylene) | B (>80% intact after 4 hours) | A (>80% intact after 24 hours) | 10 to 79.4 | B (>80% intact after 4 hours) | – | – |
| GIP(1-30) C-ter. ^natInDOTA | – | – | – | – | 12.0 ± 0.1 | – |
| B1 | – | – | – | – | – | > 9.5 |
